Test results from US20070049564A1 (Wyeth, priority 2005, published 2007).
Values after ≈ are worked out from the molar mass of the structure shown. Read-outs that look alike come from different tables or passages of the source.

Experiments:
S. pneumoniae+ GC 4465 = assay: MIC, broth microdilution; conditions: Streptococcus pneumoniae
S. aureus GC 4536 = assay: MIC, broth microdilution; conditions: Staphylococcus aureus
c. albicans GC 3066 = assay: MIC, broth microdilution
S. epidermidis GC 4935 = assay: MIC, broth microdilution; conditions: Staphylococcus epidermidis
Staph. aureus Smith = assay: In vivo activity (oral, iv; ED50) against Staph. aureus Smith in mice
Procedure: Representative examples of compounds of Formula I were tested for the oral efficacy using S. aureus Smith in mice.

E. coli = assay: Range of MIC for E. coli strains; conditions: Escherichia coli
E. faecalis GC 2267 = assay: MIC, broth microdilution; conditions: Enterococcus faecalis
E. coli GC 2231 = assay: MIC, broth microdilution; conditions: Escherichia coli
Procedure: Antimicrobial susceptibility testing. The in vitro activities of the antibiotics are determined by the broth microdilution method as recommended by the National Committee for Clinical Laboratory Standards (NCCLS) (1). Mueller-Hinton II broth (MHBII)(BBL Cockeysville, Md.) is the medium employed in the testing procedures. Microtiter plates containing serial dilutions of each antimicrobial agent are inoculated with each organism to yield the appropriate density (10^5 CFU/ml) in a 100 μl final volume. The plates are incubated for 18-22 hours at 35° C. in ambient air.
Representative compounds were first incubated in mouse serum for an hour prior to the in vitro testing against a panel of selected gram-positive and gram-negative bacteria strains. All compounds were also pre-incubated in water for an hour prior to testing as control.

E. faecium GC 2243 = assay: MIC, broth microdilution; conditions: Enterococcus faecium
E. faecalis GC 2265 = assay: MIC, broth microdilution; conditions: Enterococcus faecalis
E. coli GC 2236 = assay: MIC, broth microdilution; conditions: Escherichia coli
E. faecalis GC 4555 = assay: MIC, broth microdilution; conditions: Enterococcus faecalis
S. aureus GC 2216 = assay: MIC, broth microdilution; conditions: Staphylococcus aureus
Procedure: Antimicrobial susceptibility testing. The in vitro activities of the antibiotics are determined by the broth microdilution method as recommended by the National Committee for Clinical Laboratory Standards (NCCLS) (1). Mueller-Hinton II broth (MHBII)(BBL Cockeysville, Md.) is the medium employed in the testing procedures. Microtiter plates containing serial dilutions of each antimicrobial agent are inoculated with each organism to yield the appropriate density (10^5 CFU/ml) in a 100 μl final volume. The plates are incubated for 18-22 hours at 35° C. in ambient air. […] Standard Pharmacological Test Procedures
Presented in Tables I-XIII are representative compounds of Formula I which were evaluated against a panel of 40 selected gram-positive and gram-negative bacteria strains by pre-incubation in water, mouse serum or human serum. Representative compounds were first incubated in mouse serum for an hour prior to the in vitro testing against a panel of selected gram-positive and gram-negative bacteria strains. All compounds were also pre-incubated in water for an hour prior to testing as control. Representative compounds of Formula I were incubated in human serum prior to MIC determination.

E. coli GC 2232 = assay: MIC, broth microdilution; conditions: Escherichia coli
S. pneumoniae* GC 4465 = assay: MIC, broth microdilution; conditions: Streptococcus pneumoniae
E. faecalis GC 2242 = assay: MIC, broth microdilution; conditions: Enterococcus faecalis
S. aureus GC 1131 = assay: MIC, broth microdilution; conditions: Staphylococcus aureus
Staph. = assay: Range of MIC for Staph. strains, including MRSA; conditions: Staphylococcus aureus, MRSA
P. aeruginosa GC 2214 = assay: MIC, broth microdilution; conditions: Pseudomonas aeruginosa
E. coli GC 2272 = assay: MIC, broth microdilution; conditions: Escherichia coli
[1] = Staphylococcus aureus, in Mus musculus, po, read-out: ED50 Staph Smith SOD
[2] = iv, read-out: ED50 Staph Smith SIV
[3] = read-out: Range of MIC, Staph (Mouse Serum)

CCCN(CC(=O)Nc1cc(N(C)C)c2c(c1O)C(=O)C1=C(O)[C@]3(O)C(=O)C(C(N)=O)=C(O)C(N(C)C)C3CC1C2)C(=O)OCc1oc(=O)oc1-c1ccccc1 (stereo in doubt) [Example 110, (2-oxo-5-phenyl-1,3-dioxol-4-yl)methyl 2-{[(7R,10aS)-9-(aminocarbonyl)-4,7-bis(dimethylamino)-1,8,10a,11-tetrahydroxy-10,12-dioxo-5,5a,6,6a,7,10,10a,12-octahydrotetracen-2-yl]amino}-2-oxoethyl(propyl)carbamate]
MIC (S. pneumoniae+ GC 4465; pre-incubation in mouse serum): 4 µg/mL (≈ 5.06 µM)
MIC (S. pneumoniae+ GC 4465; pre-incubation in water): 2 µg/mL (≈ 2.53 µM)
MIC (S. aureus GC 4536; GC4536, pre-incubation in mouse serum): 4 µg/mL (≈ 5.06 µM)
MIC (S. aureus GC 4536; GC4536, pre-incubation in water): 4 µg/mL (≈ 5.06 µM)
MIC (c. albicans GC 3066; Candida albicans, GC3066): > 64 µg/mL
MIC (c. albicans GC 3066; pre-incubation in water): >64 UG/ML
MIC (S. epidermidis GC 4935; GC4935, pre-incubation in mouse serum): 4 µg/mL (≈ 5.06 µM)
MIC (S. epidermidis GC 4935; GC4935, pre-incubation in water): 8 µg/mL (≈ 10.1 µM)
ED50 (Staph. aureus Smith; [1]): 31.9 mg/kg
ED50 (Staph. aureus Smith; [2]): 0.6 mg/kg
MIC (E. coli; 20 h, read-out: Range of MIC, E. coli (Mouse Serum)): 0.5 to 4 µg/mL (≈ 0.633 to 5.06 µM)
MIC (E. coli; read-out: Range of MIC, E. coli (Water)): 1 to 8 µg/mL (≈ 1.27 to 10.1 µM)
MIC (E. faecalis GC 2267; GC2267, pre-incubation in mouse serum): 8 µg/mL (≈ 10.1 µM)
MIC (E. faecalis GC 2267; GC2267, pre-incubation in water): 4 µg/mL (≈ 5.06 µM)
MIC (E. coli GC 2231; GC2231, pre-incubation in mouse serum): 4 µg/mL (≈ 5.06 µM)
MIC (E. coli GC 2231; GC2231, pre-incubation in water): 8 µg/mL (≈ 10.1 µM)
MIC (E. faecium GC 2243; GC2243, pre-incubation in mouse serum): 0.5 µg/mL (≈ 0.633 µM)
MIC (E. faecium GC 2243; GC2243, pre-incubation in water): 0.5 µg/mL (≈ 0.633 µM)
MIC (E. faecalis GC 2265; GC2265, pre-incubation in mouse serum): 8 µg/mL (≈ 10.1 µM)
MIC (E. faecalis GC 2265; GC2265, pre-incubation in water): 4 µg/mL (≈ 5.06 µM)
MIC (E. coli GC 2236; GC2236, pre-incubation in mouse serum): 1 µg/mL (≈ 1.27 µM)
MIC (E. coli GC 2236; GC2236, pre-incubation in water): 2 µg/mL (≈ 2.53 µM)
MIC (E. faecalis GC 4555; GC4555, pre-incubation in mouse serum): 1 µg/mL (≈ 1.27 µM)
MIC (E. faecalis GC 4555; GC4555, pre-incubation in water): 2 µg/mL (≈ 2.53 µM)
MIC (S. aureus GC 2216; GC2216, pre-incubation in mouse serum): 2 µg/mL (≈ 2.53 µM)
MIC (S. aureus GC 2216; GC2216, pre-incubation in water): 4 µg/mL (≈ 5.06 µM)
MIC (E. coli GC 2232; GC2232, pre-incubation in mouse serum): 1 µg/mL (≈ 1.27 µM)
MIC (E. coli GC 2232; GC2232, pre-incubation in water): 2 µg/mL (≈ 2.53 µM)
MIC (S. pneumoniae* GC 4465; pre-incubation in mouse serum): 0.25 µg/mL (≈ 0.317 µM)
MIC (S. pneumoniae* GC 4465; pre-incubation in water): 0.12 µg/mL (≈ 0.152 µM)
MIC (E. faecalis GC 2242; GC2242, pre-incubation in mouse serum): 1 µg/mL (≈ 1.27 µM)
MIC (E. faecalis GC 2242; GC2242, pre-incubation in water): 1 µg/mL (≈ 1.27 µM)
MIC (S. aureus GC 1131; GC1131, pre-incubation in mouse serum): 2 µg/mL (≈ 2.53 µM)
MIC (S. aureus GC 1131; GC1131, pre-incubation in water): 4 µg/mL (≈ 5.06 µM)
MIC (Staph.; [3]): 1 to 32 µg/mL (≈ 1.27 to 40.5 µM)
MIC (P. aeruginosa GC 2214; GC2214, pre-incubation in mouse serum): > 64 µg/mL
MIC (P. aeruginosa GC 2214; GC2214, pre-incubation in water): > 64 µg/mL
MIC (E. coli GC 2272; GC2272, pre-incubation in mouse serum): 1 µg/mL (≈ 1.27 µM)
MIC (E. coli GC 2272; GC2272, pre-incubation in water): 1 µg/mL (≈ 1.27 µM)

CCCN(CC(=O)Nc1cc(N(C)C)c2c(c1O)C(=O)C1=C(O)[C@]3(O)C(=O)C(C(N)=O)=C(O)[C@@H](N(C)C)[C@@H]3C[C@@H]1C2)C(=O)OCC(C)C [Example 16, isobutyl 2-{[(5aR,6aS,7S,10aS)-9-(aminocarbonyl)-4,7-bis(dimethylamino)-1,8,10a,11-tetrahydroxy-10,12-dioxo-5,5a,6,6a,7,10,10a,12-octahydrotetracen-2-yl]amino}-2-oxoethyl(propyl)carbamate]
MIC (S. pneumoniae+ GC 4465; S. pneumoniae+ GC 4465, Mouse Serum pre-incubation): 8 µg/mL (≈ 11.9 µM)
MIC (S. pneumoniae+ GC 4465; S. pneumoniae+ GC 4465, Water pre-incubation): 8 µg/mL (≈ 11.9 µM)
MIC (S. aureus GC 4536; GC4536, S. aureus GC 4536, Mouse Serum pre-incubation): 2 µg/mL (≈ 2.98 µM)
MIC (S. aureus GC 4536; GC4536, S. aureus GC 4536, Water pre-incubation): 4 µg/mL (≈ 5.95 µM)
MIC (c. albicans GC 3066; Candida albicans, GC3066): > 64 µg/mL
MIC (c. albicans GC 3066; c. albicans GC 3066, Water pre-incubation): >64 UG/ML
MIC (S. epidermidis GC 4935; GC4935, S. epidermidis GC 4935, Mouse Serum pre-incubation): 8 µg/mL (≈ 11.9 µM)
MIC (S. epidermidis GC 4935; GC4935, S. epidermidis GC 4935, Water pre-incubation): 8 µg/mL (≈ 11.9 µM)
ED50 (Staph. aureus Smith; [1]): > 32 mg/kg
ED50 (Staph. aureus Smith; [2]): > 2 mg/kg
MIC (E. faecalis GC 2267; GC2267, E. faecalis GC 2267, Mouse Serum pre-incubation): 4 µg/mL (≈ 5.95 µM)
MIC (E. faecalis GC 2267; GC2267, E. faecalis GC 2267, Water pre-incubation): 8 µg/mL (≈ 11.9 µM)
MIC (E. coli GC 2231; GC2231, E. coli GC 2231, Mouse Serum pre-incubation): > 64 µg/mL
MIC (E. coli GC 2231; GC2231, E. coli GC 2231, Water pre-incubation): > 64 µg/mL
MIC (E. faecium GC 2243; GC2243, E. faecium GC 2243, Mouse Serum pre-incubation): 4 µg/mL (≈ 5.95 µM)
MIC (E. faecium GC 2243; GC2243, E. faecium GC 2243, Water pre-incubation): 8 µg/mL (≈ 11.9 µM)
MIC (E. faecalis GC 2265; GC2265, E. faecalis GC 2265, Mouse Serum pre-incubation): 4 µg/mL (≈ 5.95 µM)
MIC (E. faecalis GC 2265; GC2265, E. faecalis GC 2265, Water pre-incubation): 8 µg/mL (≈ 11.9 µM)
MIC (E. coli GC 2236; GC2236, E. coli GC 2236, Mouse Serum pre-incubation): 64 µg/mL (≈ 95.3 µM)
MIC (E. coli GC 2236; GC2236, E. coli GC 2236, Water pre-incubation): > 64 µg/mL
MIC (E. faecalis GC 4555; GC4555, E. faecalis GC 4555, Mouse Serum pre-incubation): 4 µg/mL (≈ 5.95 µM)
MIC (E. faecalis GC 4555; GC4555, E. faecalis GC 4555, Water pre-incubation): 8 µg/mL (≈ 11.9 µM)
MIC (S. aureus GC 2216; GC2216, S. aureus GC 2216, Mouse Serum pre-incubation): 2 µg/mL (≈ 2.98 µM)
MIC (S. aureus GC 2216; GC2216, S. aureus GC 2216, Water pre-incubation): 4 µg/mL (≈ 5.95 µM)
MIC (E. coli GC 2232; GC2232, E. coli GC 2232, Mouse Serum pre-incubation): > 64 µg/mL
MIC (E. coli GC 2232; GC2232, E. coli GC 2232, Water pre-incubation): > 64 µg/mL
MIC (S. pneumoniae* GC 4465; S. pneumoniae* GC 4465, Mouse Serum pre-incubation): 4 µg/mL (≈ 5.95 µM)
MIC (S. pneumoniae* GC 4465; S. pneumoniae* GC 4465, Water pre-incubation): 4 µg/mL (≈ 5.95 µM)
MIC (E. faecalis GC 2242; GC2242, E. faecalis GC 2242, Mouse Serum pre-incubation): 8 µg/mL (≈ 11.9 µM)
MIC (E. faecalis GC 2242; GC2242, E. faecalis GC 2242, Water pre-incubation): 8 µg/mL (≈ 11.9 µM)
MIC (S. aureus GC 1131; GC1131, S. aureus GC 1131, Mouse Serum pre-incubation): 2 µg/mL (≈ 2.98 µM)
MIC (S. aureus GC 1131; GC1131, S. aureus GC 1131, Water pre-incubation): 4 µg/mL (≈ 5.95 µM)
MIC (Staph.; [3]): 2 to 8 µg/mL (≈ 2.98 to 11.9 µM)
MIC (Staph.; read-out: Range of MIC, Staph (Water)): 4 to 8 µg/mL (≈ 5.95 to 11.9 µM)
MIC (P. aeruginosa GC 2214; GC2214, P. aeruginosa GC 2214, Mouse Serum pre-incubation): > 64 µg/mL
MIC (P. aeruginosa GC 2214; GC2214, P. aeruginosa GC 2214, Water pre-incubation): > 64 µg/mL
MIC (E. coli GC 2272; GC2272, E. coli GC 2272, Mouse Serum pre-incubation): > 64 µg/mL
MIC (E. coli GC 2272; GC2272, E. coli GC 2272, Water pre-incubation): > 64 µg/mL
